Like-named read-outs stand apart in the source and are kept apart here.
Assays:
[1] = Ligand charge of maytansinoid conjugates; type: physicochemical
human SSTR2 = human SSTR2 (Homo sapiens, UniProt P30874); assay: Radioligand-receptor binding assay, [125I] somatostatin, membranes from SSTR2 expressing CHO-K1 cells
Procedure: These conjugates were also assessed in an in vitro assay evaluating binding to the somatostatin receptor 2 (SSTR2). A radioligand-receptor binding assay was conducted at Eurofins Panlabs (Taiwan) to determine the affinity of conjugates described herein to the SSTR2. The assay measures binding of radiolabeled ligand, [^125I] labeled somatostatin, to human SSTR2 using membrane preparations from SSTR2 expressing CHO-K1 cells. Membranes were incubated with radiolabeled somatostatin (0.03 nM) in the presence of conjugate/compound starting at a dose of 10 uM using 6× serial dilutions to obtain a 10-pt curve. After a four hour incubation, membranes were filtered and washed 3× and counted to determine the remaining [^125I] somatostatin bound to the receptor. IC50 values were determined by a non-linear, least squares regression analysis using MathIQ™ (ID Business Solutions Ltd., UK).

[2] = system: NCI-H524 (ATCC) human lung cancer cells; type: cell-based
Procedure: FIG. 1 is a graph of various conjugates represented as bars and showing on the Y-axis their activity in an H524 proliferation assay with and without competition by octreotide. […] This illustrates the suprprising finding that only maytansinoid conjugates show activity that is dependent on the receptor.
Conjugates were assessed in an in vitro assay evaluating inhibition of cell proliferation. NCI-H524 (ATCC) human lung cancer cells were plated in 96 well, V-bottomed plates (Costar) at a concentration of 5,000 cells/well and 24 hours later were treated with compound for 6 hours and further incubated 66 hours. Compound starting dose was 20 μM and three fold serial dilutions were done for a total of ten points. After 6 hours of treatment, cells were spun down, the drug containing media was removed, and fresh complete medium was added and used to resuspend the cells, which were spun again. After removal of the wash media, the cells were resuspended in complete medium, then transferred into white walled, flat bottomed 96 well plates. […] Proliferation was measured using CellTiter Glo reagent using the standard protocol (Promega) and a Glomax multi+detection system (Promega). Percent proliferation inhibition was calculated using the following formula: % inhibition=(control-treatment)/control*100. Control is defined as vehicle alone. IC50 curves were generated using the nonlinear regression analysis (four parameter) with GraphPad Prism 6.
Conjugates were tested for their activity dependence on the somatostatin receptor. Active agent Z in the conjugate was selected from auristatin, carbazitaxel, DM1, doxorubicin, platinum, SN-38 and vinblastine. Active agent Z is connected to octreotide with various linkers. Proliferation IC50 values of the conjugates were measured. Proliferation IC50 values of the conjugates without octreotide competition were also measured. The ratio of IC50 with octreotide competition and IC50 without octreotide competition is an indicator of whether activity is at least particially dependent on bind to the somatostatin receptor. […] Therefore, the activity of conjugates comprising DM1 is dependent on the binding to the somatostatin receptor.

[3] = read-out: H524 IC50 6 h, 6 hours treatment, further 66 hours incubation
[4] = read-out: H524 IC50 with 100 μM octreotide 6 h, with 100 μM octreotide competition, 6 h treatment

Sequence of human SSTR2 (P30874 whole entry): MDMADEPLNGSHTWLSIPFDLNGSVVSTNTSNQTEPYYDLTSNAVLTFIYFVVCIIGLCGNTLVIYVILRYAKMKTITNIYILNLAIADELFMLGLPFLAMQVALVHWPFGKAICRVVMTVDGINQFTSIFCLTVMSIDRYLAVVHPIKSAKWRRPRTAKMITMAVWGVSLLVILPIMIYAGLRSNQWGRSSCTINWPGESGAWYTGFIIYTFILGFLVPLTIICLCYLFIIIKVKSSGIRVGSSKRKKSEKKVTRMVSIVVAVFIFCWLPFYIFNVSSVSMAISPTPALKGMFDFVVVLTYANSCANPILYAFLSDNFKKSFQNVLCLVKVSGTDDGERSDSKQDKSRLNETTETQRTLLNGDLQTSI

In the case of `COc1cc2cc(c1Cl)N(C)C(=O)C[C@H](OC(=O)[C@H](C)N(C)C(=O)CCSSC(C)(C)[C@H](NC(=O)CC[C@H](NC(=O)[C@@H]1CSSC[C@H](NC(=O)[C@H](N)Cc3ccccc3)C(=O)N[C@@H](Cc3ccc(O)cc3)C(=O)N[C@H](Cc3c[nH]c4ccccc34)C(=O)N[C@@H](CCCCN)C(=O)N[C@@H]([C@@H](C)O)C(=O)N1)C(N)=O)C(N)=O)[C@]1(C)O[C@H]1[C@H](C)[C@@H]1C[C@@](O)(NC(=O)O1)[C@H](OC)/C=C/C=C(\C)C2` [Conjugate 18], the Ligand charge [1] is reported as “+2”, the Ki (human SSTR2) is reported as 0.18 nM and the IC50 [2, 3] is reported as 19 nM. The IC50 [2, 4] was 353 nM.

For `COc1cc2cc(c1Cl)N(C)C(=O)C[C@H](OC(=O)[C@H](C)N(C)C(=O)CCSSC[C@H](NC(=O)[C@@H]1CSSC[C@H](NC(=O)[C@@H](Cc3ccccc3)NC(=O)NC3CCCCC3)C(=O)N[C@@H](Cc3ccc(O)cc3)C(=O)N[C@H](Cc3c[nH]c4ccccc34)C(=O)N[C@@H](CCCCN)C(=O)N[C@@H]([C@@H](C)O)C(=O)N1)C(=O)NCc1ccccc1)[C@]1(C)O[C@H]1[C@H](C)[C@@H]1C[C@@](O)(NC(=O)O1)[C@H](OC)/C=C/C=C(\C)C2` [Conjugate 26], the Ligand charge [1] was “+1”, the Ki (human SSTR2) was 1.42 nM and the IC50 [2, 3] was 30 nM. It also gave an IC50 [2, 4] of 106 nM.

With `COc1cc2cc(c1Cl)N(C)C(=O)C[C@H](OC(=O)[C@H](C)N(C)C(=O)CCSSC[C@H](NC(=O)[C@@H]1CSSC[C@H](NC(=O)[C@@H](Cc3ccccc3)NC(C)=O)C(=O)N[C@@H](Cc3ccc(O)cc3)C(=O)N[C@H](Cc3c[nH]c4ccccc34)C(=O)N[C@@H](CCCCN)C(=O)N[C@@H]([C@@H](C)O)C(=O)N1)C(N)=O)[C@]1(C)O[C@H]1[C@H](C)[C@@H]1C[C@@](O)(NC(=O)O1)[C@H](OC)/C=C/C=C(\C)C2` [Conjugate 27] the Ligand charge [1] was “+1”, the Ki (human SSTR2) was 0.15 nM and the IC50 [2, 3] was 17 nM. For the same molecule, the IC50 [2, 4] was 49 nM.

For `COc1cc2cc(c1Cl)N(C)C(=O)C[C@H](OC(=O)[C@H](C)N(C)C(=O)CCSSC[C@H](NC(=O)[C@@H]1CSSC[C@H](NC(=O)[C@@H](Cc3ccccc3)NC(=O)C(F)(F)F)C(=O)N[C@@H](Cc3ccc(O)cc3)C(=O)N[C@H](Cc3c[nH]c4ccccc34)C(=O)N[C@@H](CCCCN)C(=O)N[C@@H]([C@@H](C)O)C(=O)N1)C(N)=O)[C@]1(C)O[C@H]1[C@H](C)[C@@H]1C[C@@](O)(NC(=O)O1)[C@H](OC)/C=C/C=C(\C)C2` [Conjugate 29], the Ligand charge [1] was “+1”, the Ki (human SSTR2) was 0.23 nM and the IC50 [2, 3] was 5.7 nM. For the same molecule, the IC50 [2, 4] was 28 nM.

With `COc1cc2cc(c1Cl)N(C)C(=O)C[C@H](OC(=O)[C@H](C)N(C)C(=O)CCSSC[C@@H](NC(=O)[C@@H]1CSSC[C@H](NC(=O)[C@@H](Cc3ccccc3)NC(=O)C(F)(F)F)C(=O)N[C@@H](Cc3ccc(O)cc3)C(=O)N[C@H](Cc3c[nH]c4ccccc34)C(=O)N[C@@H](CCCCN)C(=O)N[C@@H]([C@@H](C)O)C(=O)N1)C(N)=O)[C@]1(C)O[C@H]1[C@H](C)[C@@H]1C[C@@](O)(NC(=O)O1)[C@H](OC)/C=C/C=C(\C)C2` [Conjugate 32] the Ligand charge [1] was “+1”, the Ki (human SSTR2) was 0.82 nM and the IC50 [2, 3] was 33 nM. For the same molecule, the IC50 [2, 4] was 98 nM.

For `COC(=O)N[C@H](Cc1ccccc1)C(=O)N[C@H]1CSSC[C@@H](C(=O)N[C@@H](CSSCCC(=O)N(C)[C@@H](C)C(=O)O[C@H]2CC(=O)N(C)c3cc(cc(OC)c3Cl)C/C(C)=C/C=C/[C@@H](OC)[C@@]3(O)C[C@H](OC(=O)N3)[C@@H](C)[C@@H]3O[C@@]23C)C(N)=O)NC(=O)[C@H]([C@@H](C)O)NC(=O)[C@H](CCCCN)NC(=O)[C@@H](Cc2c[nH]c3ccccc23)NC(=O)[C@H](Cc2ccc(O)cc2)NC1=O` [Conjugate 35], the Ligand charge [1] was “+1”, the Ki (human SSTR2) was 0.024 nM and the IC50 [2, 3] was 27 nM. For the same molecule, the IC50 [2, 4] was 17 nM.

For `CCNC(=O)N[C@H](Cc1ccccc1)C(=O)N[C@H]1CSSC[C@@H](C(=O)N[C@@H](CSSCCC(=O)N(C)[C@@H](C)C(=O)O[C@H]2CC(=O)N(C)c3cc(cc(OC)c3Cl)C/C(C)=C/C=C/[C@@H](OC)[C@@]3(O)C[C@H](OC(=O)N3)[C@@H](C)[C@@H]3O[C@@]23C)C(N)=O)NC(=O)[C@H]([C@@H](C)O)NC(=O)[C@H](CCCCN)NC(=O)[C@@H](Cc2c[nH]c3ccccc23)NC(=O)[C@H](Cc2ccc(O)cc2)NC1=O` [Conjugate 39], the Ligand charge [1] was “+1”, the Ki (human SSTR2) was 0.07 nM and the IC50 [2, 3] was 1.3 nM. It also gave an IC50 [2, 4] of 12 nM.

For `COc1cc2cc(c1Cl)N(C)C(=O)C[C@H](OC(=O)[C@H](C)N(C)C(=O)CCSSC[C@H](NC(=O)[C@@H]1CSSC[C@H](NC(=O)[C@@H](Cc3ccccc3)NCc3ccccc3)C(=O)N[C@@H](Cc3ccc(O)cc3)C(=O)N[C@H](Cc3c[nH]c4ccccc34)C(=O)N[C@@H](CCCCN)C(=O)N[C@@H]([C@@H](C)O)C(=O)N1)C(N)=O)[C@]1(C)O[C@H]1[C@H](C)[C@@H]1C[C@@](O)(NC(=O)O1)[C@H](OC)/C=C/C=C(\C)C2` [Conjugate 43], the Ligand charge [1] was “+2”, the Ki (human SSTR2) was 0.075 nM and the IC50 [2, 3] was 7.2 nM. The IC50 [2, 4] was 20 nM.

In the case of `COc1cc2cc(c1Cl)N(C)C(=O)C[C@H](OC(=O)[C@H](C)N(C)C(=O)CCSSC[C@H](NC(C)=O)C(=O)NC[C@H](NC(=O)[C@@H]1CSSC[C@H](NC(=O)[C@H](N)Cc3ccccc3)C(=O)N[C@@H](Cc3ccc(O)cc3)C(=O)N[C@H](Cc3c[nH]c4ccccc34)C(=O)N[C@@H](CCCCN)C(=O)N[C@@H]([C@@H](C)O)C(=O)N1)C(N)=O)[C@]1(C)O[C@H]1[C@H](C)[C@@H]1C[C@@](O)(NC(=O)O1)[C@H](OC)/C=C/C=C(\C)C2` [Conjugate 45], the Ligand charge [1] is reported as “+2”, the Ki (human SSTR2) is reported as 0.049 nM and the IC50 [2, 3] is reported as 1.3 nM. For the same molecule, the IC50 [2, 4] was 154 nM.

For `COc1cc2cc(c1Cl)N(C)C(=O)C[C@H](OC(=O)[C@H](C)N(C)C(=O)CCSSC[C@H](NC(=O)CC[C@H](NC(=O)[C@@H]1CSSC[C@H](NC(=O)[C@H](N)Cc3ccccc3)C(=O)N[C@@H](Cc3ccc(O)cc3)C(=O)N[C@H](Cc3c[nH]c4ccccc34)C(=O)N[C@@H](CCCCN)C(=O)N[C@@H]([C@@H](C)O)C(=O)N1)C(N)=O)C(N)=O)[C@]1(C)O[C@H]1[C@H](C)[C@@H]1C[C@@](O)(NC(=O)O1)[C@H](OC)/C=C/C=C(\C)C2` [Conjugate 46], the Ligand charge [1] was “+2”, the Ki (human SSTR2) was 0.045 nM and the IC50 [2, 3] was 0.3 nM. It also gave an IC50 [2, 4] of 195 nM.

For `COc1cc2cc(c1Cl)N(C)C(=O)C[C@H](OC(=O)[C@H](C)N(C)C(=O)CCSSCCNC(=O)CC[C@H](NC(=O)[C@@H]1CSSC[C@H](NC(=O)[C@H](N)Cc3ccccc3)C(=O)N[C@@H](Cc3ccc(O)cc3)C(=O)N[C@H](Cc3c[nH]c4ccccc34)C(=O)N[C@@H](CCCCN)C(=O)N[C@@H]([C@@H](C)O)C(=O)N1)C(N)=O)[C@]1(C)O[C@H]1[C@H](C)[C@@H]1C[C@@](O)(NC(=O)O1)[C@H](OC)/C=C/C=C(\C)C2` [Conjugate 47], the Ligand charge [1] was “+2”, the Ki (human SSTR2) was 0.072 nM and the IC50 [2, 3] was 0.7 nM. The IC50 [2, 4] was 210 nM.

With `COc1cc2cc(c1Cl)N(C)C(=O)C[C@H](OC(=O)[C@H](C)N(C)C(=O)CCSC1CC(=O)N(CCCNC(=O)CC[C@H](NC(=O)[C@@H]3CSSC[C@H](NC(=O)[C@H](N)Cc4ccccc4)C(=O)N[C@@H](Cc4ccc(O)cc4)C(=O)N[C@H](Cc4c[nH]c5ccccc45)C(=O)N[C@@H](CCCCN)C(=O)N[C@@H]([C@@H](C)O)C(=O)N3)C(N)=O)C1=O)[C@]1(C)O[C@H]1[C@H](C)[C@@H]1C[C@@](O)(NC(=O)O1)[C@H](OC)/C=C/C=C(\C)C2` (stereo partly shown) [Conjugate 48] the Ligand charge [1] was “+2”, the Ki (human SSTR2) was 0.21 nM and the IC50 [2, 3] was 9 nM. For the same molecule, the IC50 [2, 4] was 157 nM.

For `COc1cc2cc(c1Cl)N(C)C(=O)C[C@H](OC(=O)[C@H](C)N(C)C(=O)CCSSC(C)(C)[C@H](NC(=O)[C@@H]1CSSC[C@H](NC(=O)[C@H](N)Cc3ccccc3)C(=O)N[C@@H](Cc3ccc(O)cc3)C(=O)N[C@H](Cc3c[nH]c4ccccc34)C(=O)N[C@@H](CCCCNC(=O)[C@@H](NC(=O)[C@@H](N)C(C)C)C(C)C)C(=O)N[C@@H]([C@@H](C)O)C(=O)N1)C(N)=O)[C@]1(C)O[C@H]1[C@H](C)[C@@H]1C[C@@](O)(NC(=O)O1)[C@H](OC)/C=C/C=C(\C)C2` [Conjugate 58], the Ligand charge [1] was “+2”, the Ki (human SSTR2) was 3980 nM and the IC50 [2, 3] was 90 nM. The IC50 [2, 4] was 250 nM.

Reference: US20190125888A1, “TARGETED CONJUGATES AND PARTICLES AND FORMULATIONS THEREOF” (priority 2015, published 2019)
